This is an account of results in PMC11672724, “Antiparasitic Activities of Acyl Hydrazones from Cinnamaldehydes and Structurally Related Fragrances” (Antibiotics, 2024).

Data set [1] has as its system T. gondii RH strain tachyzoites. The data set is described as follows: Toxoplasma gondii cells drug testing assay (infection index in Vero cells, 72 h). The format is cell-based. Conditions: for IC50: Toxoplasma gondii, Vero, IC50 ± SD, three independent experiments, 72 h; for SI = selectivity index (Vero/T. gondii): ratio IC50 Vero / IC50 T. gondii. The method, then:
Cells of the Vero cell line (ATCC® CCL81™, Manassas, VA, USA) were used to cultivate T. gondii RH strain tachyzoites. Vero cells were maintained in complete RPMI 1640 medium (Thermo Fisher Scientific, Waltham, MA, USA). For cell cultivation, 96-well plates were prepared with 5 × 10^3 cells per well in 200 μL of RPMI 1640 medium, then incubated at 37 °C and 5% CO2 for 24 h. The medium was then removed, and cells were washed with phosphate-buffered saline (PBS). Next, RPMI 1640 medium with 2% FBS and parasites at a 5:1 parasite-to-cell ratio were added. After a 5 h incubation at 37 °C and 5% CO2, cells were washed with PBS and subjected to further treatments. […] After incubation at 37 °C and 5% CO2 for 72 h, cells were washed with PBS, fixed in 10% formalin, and stained with 1% toluidine blue. An inverted photomicroscope was used to assess cell infection and to determine the infection index (number of infected cells out of 200 counted cells). The inhibition percentage was calculated as follows:Inhibition (%) = [(I Control − I Experimental)/I Control] × 100 where “I Control” represents the infection index of untreated cells, and “I Experimental” represents the infection index of cells treated with test compounds. The effects of the compounds on parasite growth are expressed as IC50 values derived from three independent experiments.

The subject of a further data set is Vero monkey kidney cells. Put plainly: Vero cell cytotoxicity (MTT assay, 72 h). Type of data set: cell-based. The following applies: Primates, IC50 ± SD. The method, then:
To assess the test compounds’ cytotoxicity, MTT assays were performed. The Vero cells and macrophages were cultivated for 24 h at 37 °C in RPMI 1640 media with 10% FBS and 5% CO2 in 96-well plates (5 × 10^3 cells/well/200 μL). Following a washing step with PBS, the cells were treated with test compounds at different concentrations (50, 25, 12.5, 6.25, 3.13, 1.65, and 0.75 μg /mL) in 10% FBS medium for 72 h. Negative control cells were only given media with 2% FBS and 1% DMSO. The cells were cultured for 4 h after the supernatant was disposed of, and 50 μL of RPMI 1640 media containing 14 μL MTT (5 mg/mL) was added. After removing the supernatant once again, 150 μL of DMSO was added. IC50 values were determined from three independent experiments.
(Tetrazolium assays rely on reduction of a dye to a coloured formazan, in cell work by metabolically active cells.)

The test system of the next data set is L. major promastigotes. The data set is described as follows: Leishmania major promastigote assay (MTT, 72 h). Type of data set: cell-based. Conditions: for IC50: 72 h, IC50 ± SD, MTT. The procedure:
(§1) Promastigotes of L. major were obtained from a patient (February 2016) and cultured at 26 °C in Schneider’s Drosophila medium (Invitrogen, Carlsbad, CA, USA) supplemented with 10% heat-inactivated fetal bovine serum (FBS, Invitrogen, USA) and antibiotics, with weekly transfers in a tissue culture flask. Promastigotes were cryopreserved in liquid nitrogen at a concentration of 3 × 10^6 parasites/mL. Virulent L. major parasites were maintained by serial passage in female BALB/c mice, achieved by injecting hind footpads with 1 × 10^6 stationary-phase promastigotes. Amastigotes were isolated from the mice after 8 weeks, then converted to promastigotes by cultivation at 26 °C in Schneider’s medium containing 10% FBS and antibiotics. Amastigote-derived promastigotes, which underwent several in vitro passages, were used for the infection studies. BALB/c mice (both male and female) were provided by the Pharmaceutical College, King Saud University, Kingdom of Saudi Arabia, and housed in specific pathogen-free conditions following the ethical guidelines of the Qassim University Research Ethics Committee (permission number: 20-03-20).
L. major promastigotes in the logarithmic phase were cultured in phenol-red-free RPMI 1640 medium (Invitrogen, USA) with 10% FBS in 96-well plates at 10^6 cells/mL (200 μL/well, counted with a hemocytometer). Test compounds were added at final concentrations of 50, 25, 12.5, 6.25, 3.13, 1.65, and 0.75 μg/mL. […] After incubation at 26 °C for 72 h, viable promastigotes were counted using an MTT colorimetric assay. The formed formazan was dissolved in a detergent and the absorbance was measured at 570 nm using an ELISA reader. IC50 values were derived from three independent experiments.

The next data set relates to L. major amastigotes. Put plainly: Leishmania major amastigotes in peritoneal macrophages (percentage of infected macrophages, 72 h). Type of data set: cell-based. Conditions: Macrophage, IC50 ± SD. The procedure:
as §1
Activity against amastigotes in macrophages was evaluated using peritoneal macrophages, which were harvested from 6–8-week-old BALB/c mice of different sex, and plated at 5 × 10^4 cells/well in 96-well plates containing phenol-red-free RPMI 1640 medium with 10% FBS. After 4 h at 37 °C and 5% CO2 to promote adhesion, cells were washed with PBS, and 200 μL of an L. major promastigote solution (10 promastigotes per macrophage) was added. Plates were incubated for 24 h at 37 °C in a 5% CO2 environment to allow infection and amastigote differentiation. Infected cells were then washed with PBS and overlaid with RPMI 1640 medium containing the test compounds at the same concentrations as applied for the experiments with promastigotes, followed by incubation at 37 °C and 5% CO2 for 72 h. […] IC50 values were calculated from three independent experiments.

Another data set has as its system macrophages. Put plainly: Macrophage cytotoxicity (MTT assay, 72 h). Type of data set: cell-based, BALB/c mice. Conditions: Mus musculus, IC50 ± SD. The procedure:
Plates were incubated for 24 h at 37 °C in a 5% CO2 environment to allow infection and amastigote differentiation. Infected cells were then washed with PBS and overlaid with RPMI 1640 medium containing the test compounds at the same concentrations as applied for the experiments with promastigotes, followed by incubation at 37 °C and 5% CO2 for 72 h. […] The percentage of infected macrophages was determined microscopically after fixation, Giemsa staining, and medium removal. IC50 values were calculated from three independent experiments. To assess the test compounds’ cytotoxicity, MTT assays were performed. […] Negative control cells were only given media with 2% FBS and 1% DMSO. The cells were cultured for 4 h after the supernatant was disposed of, and 50 μL of RPMI 1640 media containing 14 μL MTT (5 mg/mL) was added. After removing the supernatant once again, 150 μL of DMSO was added. IC50 values were determined from three independent experiments.

SMILES strings stand for the structures. Some results are limits rather than exact numbers.

The IC50 is the midpoint of a concentration-inhibition curve. What is called melting point is the temperature, or range, at which the solid turns liquid. Take `O=C(N/N=C/C=C/c1ccccc1)c1cccc(F)c1` [Compound 2i, (E)-N′-(Cinnamylidene)-3-fluorobenzoylhydrazide]: the melting point lay in the range of 205 to 206 °C. Moreover, in data set [1], the IC50 was found to be 39.1 ± 6.4 µM and the “SI = selectivity index (Vero/T. gondii)” value is 1.1. The compound further registered an IC50 in the data set on Vero monkey kidney cells of 44 ± 6.7 µM. The IC50 with L. major promastigotes (Leishmania major) is over 49.2 µM. The compound further displayed a half-inhibitory concentration (IC50) with L. major amastigotes of over 49.2 µM. Further, the IC50 in the data set on macrophages is over 49.2 µM.

`CC(C)Cc1ccc(CC(C)/C=N/NC(=O)c2cccc(Cl)c2)cc1` (stereo not shown) [Compound 3f, N′-2-Methyl-3-[4-(2-methylpropyl)phenyl]propanylidene-3-chlorobenzoylhydrazide] showed a melting point of 88 to 89 °C. Further, in data set [1], the 50% inhibitory concentration (IC50) was 22 ± 3.3 µM and the “SI = selectivity index (Vero/T. gondii)” value is on record as 2.3. The compound further registered an IC50 with Vero monkey kidney cells of 50.2 ± 7.7 µM. Moreover, the IC50 in the data set with L. major promastigotes worked out at 29.1 ± 3.3 µM. For the same compound, the concentration for half-maximal inhibition (IC50) in the data set with L. major promastigotes (Leishmania major) is under 30 µM. Further, in the data set with L. major promastigotes (ratio IC50 macrophages / IC50 promastigotes), the “SI (promastigotes) = selectivity index (macrophages/L. major promastigotes)” value is reported as over 1.9. In the data set with L. major amastigotes, this compound came in with an IC50 of over 56 µM. For the same compound, in the data set with macrophages, the IC50 was over 56 µM.
